Publication PMC3135573 (Analytical biochemistry, 2011)
Where two headings read alike, the source gives them in different places. Marks after values point to notes of the source that are not given here.

How the values were obtained:
BioA [1] = molecular target: T1, BioA (Mycobacterium tuberculosis, UniProt P9WQ81); assay type: biochemical
BioA [2] = molecular target: T1, BioA; conditions: cited from earlier work
BioA [3] = molecular target: T1, BioA; conditions: biodisc assay ref 37; cited from earlier work

T1 sequence (P9WQ81 whole entry, looked up): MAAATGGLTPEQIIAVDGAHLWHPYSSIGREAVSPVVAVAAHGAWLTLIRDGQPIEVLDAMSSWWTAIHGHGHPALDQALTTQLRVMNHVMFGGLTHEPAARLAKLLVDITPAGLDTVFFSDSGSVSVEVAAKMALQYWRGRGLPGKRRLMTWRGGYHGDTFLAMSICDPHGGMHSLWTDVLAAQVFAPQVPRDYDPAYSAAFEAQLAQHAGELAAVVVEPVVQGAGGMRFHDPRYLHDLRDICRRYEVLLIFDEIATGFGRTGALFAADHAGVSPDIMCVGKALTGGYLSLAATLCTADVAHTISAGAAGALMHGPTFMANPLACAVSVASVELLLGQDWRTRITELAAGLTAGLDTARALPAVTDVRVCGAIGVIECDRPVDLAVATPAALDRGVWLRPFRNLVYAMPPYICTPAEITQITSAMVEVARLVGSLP

## O[C@@H](CS)[C@@H](O)CS (racemic) [DTT, dithiothreitol]
BioA [1]; addition of 2 mM DTT
  decrease of the initial velocity: 18%

## C[C@@H](N)C(=O)CCCCCC(=O)O [(R)-KAPA]
BioA [2]
  inhibition of BioA (in words): potent inhibitor of BioA

## C[C@H](N)C(=O)CCCCCC(=O)O.Cl [KAPA, (S)-8-Amino-7-oxononanoic acid hydrochloride salt]
BioA [3]
  KmKAPA: 1.3 ± 0.3 ^a μM
BioA [1]; this study, 50 nM BioA, 5 mM SAM, KAPA 0–12.5 μM
  KmKAPA: 1.9 ± 0.1 µM

## C[S+](CC[C@H](N)C(=O)[O-])C[C@H]1O[C@@H](n2cnc3c(N)ncnc32)[C@H](O)[C@@H]1O (stereo partly drawn) [SAM, S-adenosyl methionine]
BioA [3]
  KmSAM: 1.4 ± 0.3 ^a mM
BioA [1]; this study, 50 nM BioA, 12.5 μM KAPA, SAM 0.12–15 mM
  KmSAM: 1.17 ± 0.06 mM
